Measurements: ChEMBL document CHEMBL1201862, “PubChem BioAssay data set” (2004)
Calls of active or inactive are those of the source.

Tests used:
[1] = tested on: H9c2; experiment: cells; assay type: functional, cell-based; settings: Rattus norvegicus, H9c2, Myocardium;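 note: confirmatory concentration-response retest of ultra-high-throughput screening hits for modulation of myocardial damage; cell death induced by hydrogen peroxide oxidative stress; compound pretreatment for 60 min then peroxide exposure for 2 h; potency is for protecting the cells against peroxide damage rather than for killing them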
[2] = cAMP pathway inhibition in counterscreen cell line – TR-FRET cAMP detection, counter-screen for MC4R biased antagonist project, dose response (AID 602305); assay type: functional, cell-based;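 note: U2OS cells stimulated with forskolin near its EC80 as the cAMP inducer; potency is for inhibition of forskolin-stimulated cAMP signaling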
[3] = biological target: Melanocortin receptor 4 (Homo sapiens, UniProt P32245); experiment: inhibitors of MC4R cAMP signaling – cell-based, TR-FRET, biased antagonists, dose response (AID 602298); assay type: functional;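 note: antagonist potency against agonist-stimulated cAMP production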
[4] = biological target: Serine/threonine-protein kinase N2 (Homo sapiens, UniProt Q16513); assay type: functional
[5] = biological target: Tyrosine-protein kinase BTK (Homo sapiens, UniProt Q06187); assay type: functional
[6] = biological target: Tyrosine-protein kinase Fyn (Homo sapiens, UniProt P06241); assay type: functional
[7] = biological target: Mitogen-activated protein kinase kinase kinase kinase 4 (Homo sapiens, UniProt O95819); assay type: functional
[8] = biological target: Focal adhesion kinase 1 (Homo sapiens, UniProt Q05397); assay type: functional;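 note: measured as one member of a kinome panel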
[9] = biological target: Misshapen-like kinase 1 (Homo sapiens, UniProt Q8N4C8); assay type: functional;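 note: kinome panel screen with MINK as the panel member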
[10] = biological target: Tyrosine-protein kinase Lck (Homo sapiens, UniProt P06239); assay type: functional;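 note: lck was assayed as one member of a kinase panel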
[11] = biological target: Tyrosine-protein kinase ABL1 (Homo sapiens, UniProt P00519); assay type: functional
[12] = biological target: Vascular endothelial growth factor receptor 2 (Homo sapiens, UniProt P35968); assay type: functional
[13] = biological target: Serine/threonine-protein kinase TAO1 (Homo sapiens, UniProt Q7L7X3); assay type: functional
[14] = biological target: cAMP-dependent protein kinase catalytic subunit alpha (Homo sapiens, UniProt P17612); assay type: functional
[15] = biological target: Interleukin-1 receptor-associated kinase 4 (Homo sapiens, UniProt Q9NWZ3); assay type: functional
[16] = biological target: MAP kinase-interacting serine/threonine-protein kinase 2 (Homo sapiens, UniProt Q9HBH9); assay type: functional
[17] = biological target: Dual specificity protein kinase CLK4 (Homo sapiens, UniProt Q9HAZ1); assay type: functional
[18] = biological target: Serine/threonine-protein kinase pim-1 (Homo sapiens, UniProt P11309); assay type: functional
[19] = biological target: Cell division cycle 7-related protein kinase (Homo sapiens, UniProt O00311); assay type: functional;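 note: value obtained from a kinome-wide kinase panel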
[20] = biological target: Glycogen synthase kinase-3 beta (Homo sapiens, UniProt P49841); assay type: functional;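 note: value comes from a broad kinome profiling panel, with GSK3B as the panel member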
[21] = biological target: Homeodomain-interacting protein kinase 2 (Homo sapiens, UniProt Q9H2X6); assay type: functional;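 note: measured within a kinome-wide kinase profiling panel, HIPK2 being one panel member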
[22] = biological target: Protein disulfide-isomerase (Homo sapiens, UniProt P07237); experiment: inhibition of PDI-driven insulin aggregation – biochemical, turbidity, absorbance, cherry-picked samples, dose response (AID 602350); assay type: functional
[23] = biological target: Tyrosine-protein kinase HCK (Homo sapiens, UniProt P08631); experiment: Navigating the Kinome. Panel member name: HCK; assay type: functional
[24] = biological target: Death-associated protein kinase 3 (Homo sapiens, UniProt O43293); assay type: functional;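 note: measured as one member of a kinome-wide profiling panel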
[25] = biological target: Aurora kinase B (Homo sapiens, UniProt Q96GD4); assay type: functional
[26] = biological target: Cyclin-dependent kinase 7 (Homo sapiens, UniProt P50613); assay type: functional;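 note: value comes from a kinome-wide kinase profiling panel in which CDK7 is one member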
[27] = biological target: Cyclin-dependent kinase 5 (Homo sapiens, UniProt Q00535); assay type: functional;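 note: CDK5 measured as one member of a kinase profiling panel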
[28] = biological target: Leukocyte tyrosine kinase receptor (Homo sapiens, UniProt P29376); experiment: Navigating the Kinome. Panel member name: LTK; assay type: functional
[29] = biological target: Glycogen synthase kinase-3 alpha (Homo sapiens, UniProt P49840); assay type: functional;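 note: GSK3A result taken from a broad kinome-wide kinase panel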
[30] = biological target: Vascular endothelial growth factor receptor 1 (Homo sapiens, UniProt P17948); assay type: functional;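 note: measured within a kinome-wide profiling panel, FLT1 as the panel member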
[31] = biological target: Platelet-derived growth factor receptor beta (Homo sapiens, UniProt P09619); assay type: functional;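 note: value comes from a kinome panel, with PDGFRB tested as one panel member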
[32] = biological target: LIM domain kinase 1 (Homo sapiens, UniProt P53667); experiment: Navigating the Kinome. Panel member name: LIMK1; assay type: functional
[33] = biological target: Platelet-derived growth factor receptor alpha (Homo sapiens, UniProt P16234); experiment: Navigating the Kinome. Panel member name: PDGFRA; assay type: functional
[34] = biological target: Calcium/calmodulin-dependent protein kinase kinase 2 (Homo sapiens, UniProt Q96RR4); experiment: Navigating the Kinome. Panel member name: CAMKK2; assay type: functional
[35] = biological target: T1, cAMP-dependent protein kinase catalytic subunit PRKX (Homo sapiens, UniProt P51817); assay type: functional
T1 sequence (P51817 whole entry): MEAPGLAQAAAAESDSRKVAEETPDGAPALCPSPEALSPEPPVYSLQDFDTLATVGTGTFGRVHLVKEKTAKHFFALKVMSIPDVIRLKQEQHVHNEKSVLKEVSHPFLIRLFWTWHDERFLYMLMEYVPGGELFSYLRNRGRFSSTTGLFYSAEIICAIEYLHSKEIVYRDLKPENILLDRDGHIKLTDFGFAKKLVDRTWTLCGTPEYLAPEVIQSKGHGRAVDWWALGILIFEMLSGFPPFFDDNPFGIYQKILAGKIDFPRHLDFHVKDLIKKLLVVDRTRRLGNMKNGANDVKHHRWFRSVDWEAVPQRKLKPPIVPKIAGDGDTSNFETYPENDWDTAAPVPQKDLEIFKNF

[36] = biological target: Rho-associated protein kinase 1 (Homo sapiens, UniProt Q13464); assay type: functional;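 note: measured within a broad kinome-wide panel profiling many kinases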
[37] = biological target: Serine/threonine-protein kinase D3 (Homo sapiens, UniProt O94806); assay type: functional;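 note: determined within a kinase panel screen, with PRKCN as the panel member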
[38] = biological target: Mitogen-activated protein kinase kinase kinase kinase 2 (Homo sapiens, UniProt Q12851); assay type: functional;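 note: measured as one member of a kinome-wide kinase panel, with MAP4K2 as the panel entry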
[39] = biological target: Serine/threonine-protein kinase 3 (Homo sapiens, UniProt Q13188); assay type: functional;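 note: measured as one member of a kinome-wide kinase panel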
[40] = biological target: Cyclin-dependent kinase 9 (Homo sapiens, UniProt P50750); assay type: functional;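 note: value from the CDK9 entry of a kinome-spanning kinase panel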
[41] = biological target: 5'-AMP-activated protein kinase catalytic subunit alpha-1 (Homo sapiens, UniProt Q13131); assay type: functional
[42] = biological target: Proto-oncogene tyrosine-protein kinase ROS (Homo sapiens, UniProt P08922); assay type: functional;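 note: ROS1 tested as one member of a kinome-wide kinase panel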
[43] = biological target: ALK tyrosine kinase receptor (Homo sapiens, UniProt Q9UM73); assay type: functional;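 note: ALK tested as one member of a kinase panel screen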
[44] = biological target: Macrophage-stimulating protein receptor (Homo sapiens, UniProt Q04912); experiment: Navigating the Kinome. Panel member name: MST1R; assay type: functional
[45] = biological target: Maternal embryonic leucine zipper kinase (Homo sapiens, UniProt Q14680); assay type: functional

Chain of Vascular endothelial growth factor receptor 2 (P35968 whole entry): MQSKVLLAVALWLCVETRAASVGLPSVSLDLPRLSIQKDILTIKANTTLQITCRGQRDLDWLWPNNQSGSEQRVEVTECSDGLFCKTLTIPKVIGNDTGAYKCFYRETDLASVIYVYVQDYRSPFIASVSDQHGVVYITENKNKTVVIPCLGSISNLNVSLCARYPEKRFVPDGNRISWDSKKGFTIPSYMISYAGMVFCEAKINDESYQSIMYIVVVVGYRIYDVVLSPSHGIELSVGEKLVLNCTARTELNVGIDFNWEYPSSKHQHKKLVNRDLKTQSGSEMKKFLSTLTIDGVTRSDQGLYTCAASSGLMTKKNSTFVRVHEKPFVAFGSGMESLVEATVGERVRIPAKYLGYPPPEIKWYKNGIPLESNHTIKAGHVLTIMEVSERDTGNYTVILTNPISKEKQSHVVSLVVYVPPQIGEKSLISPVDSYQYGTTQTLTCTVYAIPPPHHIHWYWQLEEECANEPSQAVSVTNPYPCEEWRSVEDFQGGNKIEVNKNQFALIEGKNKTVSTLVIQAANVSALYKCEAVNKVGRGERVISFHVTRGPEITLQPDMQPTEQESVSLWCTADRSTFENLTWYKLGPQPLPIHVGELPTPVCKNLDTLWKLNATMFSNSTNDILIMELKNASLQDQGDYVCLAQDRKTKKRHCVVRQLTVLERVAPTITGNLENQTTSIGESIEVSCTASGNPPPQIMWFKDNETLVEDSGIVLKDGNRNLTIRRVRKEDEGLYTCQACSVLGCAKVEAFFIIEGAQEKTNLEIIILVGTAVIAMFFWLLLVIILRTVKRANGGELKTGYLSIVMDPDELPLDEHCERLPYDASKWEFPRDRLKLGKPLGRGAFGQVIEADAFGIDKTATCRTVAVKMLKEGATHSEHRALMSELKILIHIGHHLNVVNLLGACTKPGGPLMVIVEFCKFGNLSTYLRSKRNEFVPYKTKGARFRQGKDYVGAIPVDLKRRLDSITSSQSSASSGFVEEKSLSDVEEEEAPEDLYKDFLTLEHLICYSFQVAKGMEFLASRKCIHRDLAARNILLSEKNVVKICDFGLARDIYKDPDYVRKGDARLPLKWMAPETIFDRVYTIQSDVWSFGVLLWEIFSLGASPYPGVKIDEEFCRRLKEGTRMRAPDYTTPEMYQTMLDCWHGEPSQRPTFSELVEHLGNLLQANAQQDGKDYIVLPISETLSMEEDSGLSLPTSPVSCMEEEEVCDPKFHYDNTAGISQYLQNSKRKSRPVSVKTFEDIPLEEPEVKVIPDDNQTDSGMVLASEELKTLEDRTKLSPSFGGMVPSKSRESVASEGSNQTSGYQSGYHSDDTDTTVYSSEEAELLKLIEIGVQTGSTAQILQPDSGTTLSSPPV
Chain of Cyclin-dependent kinase 7 (P50613 whole entry): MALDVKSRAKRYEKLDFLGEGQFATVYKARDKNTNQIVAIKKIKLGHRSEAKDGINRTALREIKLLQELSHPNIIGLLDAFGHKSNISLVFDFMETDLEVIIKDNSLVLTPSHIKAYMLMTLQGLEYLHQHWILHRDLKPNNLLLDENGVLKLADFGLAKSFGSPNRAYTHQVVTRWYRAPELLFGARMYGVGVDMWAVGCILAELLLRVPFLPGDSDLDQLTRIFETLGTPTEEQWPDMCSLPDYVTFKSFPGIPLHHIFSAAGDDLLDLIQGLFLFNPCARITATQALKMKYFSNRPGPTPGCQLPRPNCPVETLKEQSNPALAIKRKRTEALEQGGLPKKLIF
Chain of Serine/threonine-protein kinase 3 (Q13188 whole entry): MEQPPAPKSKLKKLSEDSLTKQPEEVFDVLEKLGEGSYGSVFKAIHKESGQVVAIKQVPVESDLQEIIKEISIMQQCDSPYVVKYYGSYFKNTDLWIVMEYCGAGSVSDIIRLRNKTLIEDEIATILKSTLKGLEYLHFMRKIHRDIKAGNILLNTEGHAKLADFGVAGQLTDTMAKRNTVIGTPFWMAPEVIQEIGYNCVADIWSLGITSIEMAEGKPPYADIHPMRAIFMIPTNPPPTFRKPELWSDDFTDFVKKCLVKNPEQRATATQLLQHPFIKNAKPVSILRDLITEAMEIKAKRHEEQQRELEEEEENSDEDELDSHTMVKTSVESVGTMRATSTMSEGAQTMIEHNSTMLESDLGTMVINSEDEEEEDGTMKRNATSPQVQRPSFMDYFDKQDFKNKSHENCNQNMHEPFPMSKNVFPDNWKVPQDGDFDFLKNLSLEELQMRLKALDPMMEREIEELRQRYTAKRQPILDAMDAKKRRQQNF
Chain of Glycogen synthase kinase-3 alpha (P49840 whole entry): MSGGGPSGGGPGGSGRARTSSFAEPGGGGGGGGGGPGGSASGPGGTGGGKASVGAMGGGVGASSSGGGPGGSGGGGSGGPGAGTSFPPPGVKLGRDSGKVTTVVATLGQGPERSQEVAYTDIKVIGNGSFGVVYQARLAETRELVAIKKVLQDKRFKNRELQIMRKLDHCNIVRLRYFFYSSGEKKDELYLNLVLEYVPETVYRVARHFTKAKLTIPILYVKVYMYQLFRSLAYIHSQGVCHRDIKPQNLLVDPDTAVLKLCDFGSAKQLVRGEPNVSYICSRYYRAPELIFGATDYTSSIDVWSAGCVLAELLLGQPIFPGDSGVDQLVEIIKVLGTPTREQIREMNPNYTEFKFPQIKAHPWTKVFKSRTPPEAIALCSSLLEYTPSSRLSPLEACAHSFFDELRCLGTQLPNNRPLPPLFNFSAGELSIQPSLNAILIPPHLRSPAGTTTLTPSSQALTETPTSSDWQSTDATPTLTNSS
Chain of Interleukin-1 receptor-associated kinase 4 (Q9NWZ3 whole entry): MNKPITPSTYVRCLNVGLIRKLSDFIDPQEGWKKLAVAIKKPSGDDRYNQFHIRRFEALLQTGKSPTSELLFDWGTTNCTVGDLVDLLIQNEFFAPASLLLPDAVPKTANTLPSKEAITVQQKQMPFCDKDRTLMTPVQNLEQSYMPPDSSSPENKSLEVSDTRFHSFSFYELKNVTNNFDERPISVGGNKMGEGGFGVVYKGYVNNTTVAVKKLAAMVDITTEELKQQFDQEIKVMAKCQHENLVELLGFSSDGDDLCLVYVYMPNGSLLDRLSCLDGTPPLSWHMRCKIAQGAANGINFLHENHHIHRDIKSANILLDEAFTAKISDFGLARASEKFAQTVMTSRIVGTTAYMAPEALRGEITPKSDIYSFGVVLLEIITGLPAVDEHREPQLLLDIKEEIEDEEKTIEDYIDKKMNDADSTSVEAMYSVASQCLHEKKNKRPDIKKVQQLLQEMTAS
Chain of Misshapen-like kinase 1 (Q8N4C8 whole entry): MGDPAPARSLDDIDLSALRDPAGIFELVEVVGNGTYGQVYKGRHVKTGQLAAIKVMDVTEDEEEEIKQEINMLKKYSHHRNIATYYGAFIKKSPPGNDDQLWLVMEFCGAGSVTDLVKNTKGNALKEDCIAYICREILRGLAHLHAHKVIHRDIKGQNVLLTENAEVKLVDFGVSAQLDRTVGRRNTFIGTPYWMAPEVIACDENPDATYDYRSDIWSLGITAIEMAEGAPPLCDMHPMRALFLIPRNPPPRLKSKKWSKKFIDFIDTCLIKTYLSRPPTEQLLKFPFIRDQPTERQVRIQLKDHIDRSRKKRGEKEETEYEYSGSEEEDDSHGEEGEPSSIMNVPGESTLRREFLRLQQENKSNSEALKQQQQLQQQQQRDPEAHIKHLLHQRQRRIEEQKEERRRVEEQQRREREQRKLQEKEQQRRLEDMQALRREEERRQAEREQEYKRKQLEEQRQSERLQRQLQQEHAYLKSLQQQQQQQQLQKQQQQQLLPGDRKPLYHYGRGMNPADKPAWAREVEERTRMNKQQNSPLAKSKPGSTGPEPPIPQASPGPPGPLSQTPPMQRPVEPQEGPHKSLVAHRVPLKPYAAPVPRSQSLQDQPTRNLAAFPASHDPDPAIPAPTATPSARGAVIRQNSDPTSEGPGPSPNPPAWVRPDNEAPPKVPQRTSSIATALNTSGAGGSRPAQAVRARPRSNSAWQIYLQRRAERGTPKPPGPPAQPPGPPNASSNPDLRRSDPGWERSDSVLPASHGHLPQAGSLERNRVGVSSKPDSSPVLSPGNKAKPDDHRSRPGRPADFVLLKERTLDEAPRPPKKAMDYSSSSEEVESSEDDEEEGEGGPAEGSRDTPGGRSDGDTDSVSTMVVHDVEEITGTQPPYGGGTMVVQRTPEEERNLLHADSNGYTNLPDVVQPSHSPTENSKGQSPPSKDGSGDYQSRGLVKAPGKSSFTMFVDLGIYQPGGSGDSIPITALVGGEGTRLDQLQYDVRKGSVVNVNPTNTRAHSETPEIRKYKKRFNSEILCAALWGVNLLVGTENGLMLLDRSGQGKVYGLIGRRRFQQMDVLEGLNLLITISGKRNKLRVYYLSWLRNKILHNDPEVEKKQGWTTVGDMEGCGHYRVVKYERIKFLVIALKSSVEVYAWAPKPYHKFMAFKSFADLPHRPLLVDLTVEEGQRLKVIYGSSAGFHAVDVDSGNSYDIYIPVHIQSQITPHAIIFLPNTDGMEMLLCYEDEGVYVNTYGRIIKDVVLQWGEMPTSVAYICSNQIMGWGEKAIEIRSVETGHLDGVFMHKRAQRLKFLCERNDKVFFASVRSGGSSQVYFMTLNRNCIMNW
Chain of Tyrosine-protein kinase HCK (P08631 whole entry): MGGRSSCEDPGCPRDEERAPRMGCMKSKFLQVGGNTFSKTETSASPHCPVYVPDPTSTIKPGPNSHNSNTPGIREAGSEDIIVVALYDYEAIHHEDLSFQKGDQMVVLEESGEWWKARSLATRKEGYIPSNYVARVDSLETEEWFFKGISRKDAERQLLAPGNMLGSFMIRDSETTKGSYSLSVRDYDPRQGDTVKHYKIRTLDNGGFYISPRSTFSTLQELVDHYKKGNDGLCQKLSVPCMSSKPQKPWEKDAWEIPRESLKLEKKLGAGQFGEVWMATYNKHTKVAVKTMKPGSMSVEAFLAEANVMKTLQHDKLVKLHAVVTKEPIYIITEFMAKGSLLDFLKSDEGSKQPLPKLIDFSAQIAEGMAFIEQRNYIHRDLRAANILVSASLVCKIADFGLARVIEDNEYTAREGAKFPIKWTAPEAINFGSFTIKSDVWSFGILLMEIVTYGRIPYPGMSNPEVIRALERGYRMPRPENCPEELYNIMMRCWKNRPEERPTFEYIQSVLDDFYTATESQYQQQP

CS(=O)(=O)Nc1cccc(NC(=O)c2cccc3c(-c4cccc(C(N)=O)c4)coc23)c1
IC50 [1]: > 79000 nM (inactive) | IC50 [2]: > 64600 nM (inactive) | IC50 [3]: > 64600 nM (inactive)

CN(C)c1c(NC(=O)c2c(F)cccc2F)cccc1-c1nc2sccn2c1-c1ccnc(Nc2cccc(N3CCOCC3)c2)n1
Ki [4]: > 5010 nM (inactive) | Ki [5]: > 6310 nM (inactive) | Ki [6]: > 6310 nM (inactive) | Ki [7]: 1260 nM (active) | Ki [8]: > 6310 nM (inactive) | Ki [9]: > 5010 nM (inactive) | Ki [10]: 501 nM (active) | Ki [11]: 501 nM (active) | Ki [12]: 2000 nM (active) | Ki [13]: > 6310 nM (inactive)

Cc1cccc(CNc2cc(-c3c[nH]c4ncccc34)ncn2)c1
Ki [14]: 158 nM (active) | Ki [15]: 501 nM (active) | Ki [16]: 158 nM (active) | Ki [17]: 6.31 nM (active) | Ki [18]: 126 nM (active) | Ki [19]: 2.51 nM (active) | Ki [20]: 7.94 nM (active) | Ki [21]: 158 nM (active)

CCN1C[C@]2(COC(=O)c3ccccc3N)CC[C@H](OC)C34[C@@H]5C[C@H]6[C@H](OC)[C@@H]5[C@](O)(C[C@@H]6OC)[C@@](O)([C@H]13)[C@@H](OC)[C@@H]42
AC50 [22]: 19500 nM (active)

CCN1CCN(Cc2ccc(NC(=O)Nc3ccc(Oc4cc(NC)ncn4)cc3)cc2C(F)(F)F)CC1 [AST-487]
Ki [23]: 100 nM (active) | Ki [24]: 3980 nM (active) | Ki [25]: > 3980 nM (inactive) | Ki [26]: > 5010 nM (inactive) | Ki [27]: > 3160 nM (inactive) | Ki [28]: 631 nM (active) | Ki [29]: > 3980 nM (inactive) | Ki [30]: 31.6 nM (active) | Ki [31]: 7.94 nM (active) | Ki [32]: > 3160 nM (inactive) | Ki [33]: 79.4 nM (active) | Ki [34]: 794 nM (active) | Ki [35]: > 3160 nM (inactive) | Ki [36]: > 3980 nM (inactive) | Ki [37]: > 3980 nM (inactive) | Ki [38]: 79.4 nM (active) | Ki [39]: > 2510 nM (inactive) | Ki [40]: > 1580 nM (inactive) | Ki [41]: > 3160 nM (inactive) | Ki [42]: 2000 nM (active) | Ki [43]: > 6310 nM (inactive) | Ki [12]: 2.51 nM (active) | Ki [44]: > 3980 nM (inactive) | Ki [45]: 126 nM (active)
